Test results published in the NIST ThermoML archive (doi:10.1016/j.fluid.2010.06.003).
Where “and” joins values, the source holds several entries; their conditions need not be identical. Equal values may be shown once.

Assay: xn = mol fraction of the nth substance listed
Details: Liquid, Taylor dispersion method, x1 = 0

C[c-]1cccc1.C[c-]1cccc1.[Fe+2] [1,1'-dimethylferrocene] + CCCCCC
313.15 K
Details	binary diffusion coefficient
160 kPa	3.36e-09 m2/s and 3.4e-09 m2/s and 3.37e-09 m2/s
170 kPa	3.41e-09 m2/s
11030 kPa	3.05e-09 m2/s and 3.06e-09 m2/s
15990 kPa	2.9e-09 m2/s
16000 kPa	2.89e-09 m2/s and 2.87e-09 m2/s
16010 kPa	2.9e-09 m2/s
16030 kPa	2.9e-09 m2/s
19020 kPa	2.84e-09 m2/s

CCc1ccc[cH-]1.[Fe+2].c1cc[cH-]c1 [ethyl ferrocene] + CCO
Details	binary diffusion coefficient
313.15 K, 200 kPa	1.29e-09 m2/s and 1.32e-09 m2/s and 1.31e-09 m2/s

[CH]1C=CC=C1.[CH]1C=CC=C1.[Fe] [ferrocene] + CCO
Details	binary diffusion coefficient
313.15 K, 200 kPa	1.48e-09 m2/s and 1.46e-09 m2/s and 1.45e-09 m2/s

C[c-]1cccc1.C[c-]1cccc1.[Fe+2] [1,1'-dimethylferrocene] + CCO
Details	binary diffusion coefficient
313.15 K, 200 kPa	1.29e-09 m2/s and 1.3e-09 m2/s and 1.31e-09 m2/s

[CH]1C=CC=C1.[CH]1C=CC=C1.[Fe] [ferrocene] + CCCCCC
binary diffusion coefficient
Details	160 kPa	170 kPa	10990 kPa	11070 kPa	11090 kPa	15990 kPa	16010 kPa	16020 kPa	16030 kPa	19020 kPa
313.05 K	–	–	–	–	–	–	–	3.14e-09 m2/s	3.11e-09 m2/s	–
313.15 K	3.66e-09 m2/s and 3.65e-09 m2/s	3.64e-09 m2/s	3.28e-09 m2/s and 3.25e-09 m2/s	3.28e-09 m2/s	3.29e-09 m2/s	3.17e-09 m2/s	3.13e-09 m2/s	3.12e-09 m2/s	3.11e-09 m2/s and 3.14e-09 m2/s	3.07e-09 m2/s

CCc1ccc[cH-]1.[Fe+2].c1cc[cH-]c1 [ethyl ferrocene] + CCCCCC
313.15 K
Details	binary diffusion coefficient
160 kPa	3.35e-09 m2/s and 3.37e-09 m2/s and 3.38e-09 m2/s and 3.3e-09 m2/s and 3.34e-09 m2/s
11060 kPa	2.98e-09 m2/s
11070 kPa	3e-09 m2/s and 2.99e-09 m2/s
16010 kPa	2.86e-09 m2/s and 2.89e-09 m2/s
16030 kPa	2.87e-09 m2/s
18960 kPa	2.81e-09 m2/s
19010 kPa	2.78e-09 m2/s

C[c-]1cccc1.C[c-]1cccc1.[Fe+2] [1,1'-dimethylferrocene] + C1CCCCC1
binary diffusion coefficient
Details	190 kPa	11020 kPa	11030 kPa	11090 kPa	16000 kPa	16010 kPa	16020 kPa	16030 kPa	19010 kPa	19020 kPa
313.15 K	1.36e-09 m2/s and 1.37e-09 m2/s	1.2e-09 m2/s	1.2e-09 m2/s	1.21e-09 m2/s	–	1.14e-09 m2/s	1.14e-09 m2/s	1.13e-09 m2/s	1.09e-09 m2/s	1.09e-09 m2/s and 1.14e-09 m2/s and 1.11e-09 m2/s
323.15 K	–	–	–	–	1.36e-09 m2/s	–	1.36e-09 m2/s	1.36e-09 m2/s	–	–

[CH]1C=CC=C1.[CH]1C=CC=C1.[Fe] [ferrocene] + C1CCCCC1
binary diffusion coefficient
Details	313.15 K	323.15 K
170 kPa	1.52e-09 m2/s	–
190 kPa	1.51e-09 m2/s	–
200 kPa	1.5e-09 m2/s	–
11030 kPa	1.31e-09 m2/s	–
11080 kPa	1.31e-09 m2/s	–
11090 kPa	1.32e-09 m2/s	–
16010 kPa	1.25e-09 m2/s	–
16020 kPa	1.25e-09 m2/s	1.48e-09 m2/s
16030 kPa	1.25e-09 m2/s	1.48e-09 m2/s
19010 kPa	1.21e-09 m2/s	–
19020 kPa	1.21e-09 m2/s and 1.22e-09 m2/s and 1.24e-09 m2/s	–

CCc1ccc[cH-]1.[Fe+2].c1cc[cH-]c1 [ethyl ferrocene] + C1CCCCC1
binary diffusion coefficient
Details	170 kPa	180 kPa	11020 kPa	11030 kPa	16020 kPa	16030 kPa	19010 kPa	19020 kPa	19030 kPa
313.15 K	1.38e-09 m2/s	1.36e-09 m2/s and 1.38e-09 m2/s	1.21e-09 m2/s	1.2e-09 m2/s	–	1.14e-09 m2/s and 1.15e-09 m2/s	1.12e-09 m2/s and 1.15e-09 m2/s	1.12e-09 m2/s	1.11e-09 m2/s
323.15 K	–	–	–	–	1.36e-09 m2/s	1.35e-09 m2/s	–	–	–
